This note sets out measurements from PubChem BioAssay AID2141 (Sanford-Burnham Center for Chemical Genomics, 2009).

The test addresses E3 ubiquitin-protein ligase SIAH1 (Homo sapiens) (UniProt Q8IUQ4). Nature of the test: Siah-1 binding antagonists, dose response, biochemical, TR-FRET (AID 2141). To be noted: TR-FRET biochemical assay. (In TR-FRET formats the signal depends on donor and acceptor labels being close together.)

Activity calls are given as the source filed them. No rule for the calls is given here.

Turning to `CCOc1cc(/C=C(\C#N)C(=O)Nc2ccccc2C(=O)O)ccc1OC(=O)c1ccc(C)cc1`, the IC50 (commonly the midpoint of a concentration-inhibition curve) is > 200 µM (inactive).

For the molecule `Cc1cc(Cl)ccc1NC(=O)CN1CCC(C(O)(c2ccccc2)c2ccccc2)CC1`, the IC50 is > 200 µM (inactive).

Take `CCC(C)N1C(=O)/C(=C/c2c(NCCCOC(C)C)nc3c(C)cccn3c2=O)SC1=S` (centres undefined): the IC50 is > 200 µM (inactive).

For `Cc1coc2c(C)c3oc(=O)c(CCC(=O)N[C@@H](C)C(=O)N[C@@H](Cc4ccccc4)C(=O)O)c(C)c3cc12`, the concentration for half-maximal inhibition (IC50) is 11.4 µM.

On to `O=c1[nH]n(-c2ccc([N+](=O)[O-])cc2)c(=O)c2ccccc12`, for which the IC50 is 11.2 µM.

As to `O=C(O)CCCCN1C(=O)/C(=C\c2ccc(OCc3ccccc3)c(OCc3ccccc3)c2)SC1=S`, the 50% inhibitory concentration (IC50) was 4.03 µM.

On to `COc1cc(CNc2ccc(O)cc2)cc(Br)c1OCc1ccccc1F`, for which the IC50 was 4.66 µM.

On to `O=C(N/N=C/c1ccc(OC(=O)c2cccs2)cc1)c1cccc(F)c1`, for which the IC50 was 1.79 µM.

As for `O=C1CCCC(O)=C1N=Nc1ccc(C(=O)O)cc1`, the IC50 was < 1.56 µM.

As to `O=C(Nc1cc([N+](=O)[O-])ccc1N1CCOCC1)c1cccs1`, the IC50 is > 200 µM (inactive).

In the case of `CC1(C)Cc2c(sc(/N=C/N3CCCCCC3)c2C#N)C(C)(C)N1`, the IC50 was > 200 µM (inactive).

In the case of `O=C(Nc1cccc(Oc2ccc(C(=O)O)c(C(=O)O)c2)c1)c1ccc(-c2ccccc2)cc1`, the IC50 was 11.6 µM.

`O=C(Nc1ccc(Cl)cc1)c1ccc(S(=O)(=O)N2CCOCC2)cc1`: the IC50 is > 200 µM (inactive).

`Cc1ccn2c(C(=O)CSc3ccc(Cl)cc3Cl)c(C)nc2c1`: the IC50 was > 200 µM (inactive).

In the case of `N#CC1C=Cc2ccccc2N1C(=O)c1ccccc1` (centres undefined), the IC50 is > 200 µM (inactive).

For `S=c1[nH]nc(Cc2cccc3ccccc23)n1-c1ccccc1`, the IC50 is > 200 µM (inactive).

With `COc1cccc2cc(C(=O)N3CCc4ccccc43)c(=O)oc12`, the IC50 was > 200 µM (inactive).

In the case of `CCCCn1c(NS(=O)(=O)c2ccccc2)c(C(=O)OCC)c2nc3ccccc3nc21`, the IC50 was 2.16 µM.

In the case of `O=C1C=C(NCc2ccccc2)c2ccccc2C1=O`, the IC50 was 15.6 µM.

Take `N#Cc1c(NC(=O)c2ccc(Br)o2)n(-c2ccccc2)c2nc3ccccc3nc12`: the IC50 was 3.73 µM.

Take `CCNc1ccc(C(=O)O)cc1N`: the IC50 was 3.96 µM.

For `CCOC(=O)C1(C)C=C(Nc2ccc(O)cc2)C(=O)N1c1ccc(O)cc1` (centres undefined), the IC50 entry is “inactive”.

Turning to `CN(C)c1cccc2c(C=C(C#N)C#N)ccc(N(C)C)c12`, the IC50 result was “inactive”.

For `Cc1c(C(=O)O)sc2nc(CSc3ncc(C(F)(F)F)cc3Cl)[nH]c(=O)c12`, the IC50 was 7.65 µM.

As to `COC(=O)C1C=C2c3cccc4[nH]cc(c34)CC2N(C)C1` (centres undefined), the IC50 was 1.85 µM.

In the case of `CCCCn1c(NC(=O)c2ccc(Br)o2)c(C(=O)OCC)c2nc3ccccc3nc21`, the IC50 is 2.04 µM.

Turning to `COc1cc(CC(=O)NCc2ccc3c(c2)OCO3)cc(OC)c1OC`, the IC50 result was “inactive”.

Take `O=C(O)c1cc(O)c2c(c1)C(=O)c1cccc(O)c1C2=O`: the IC50 was > 200 µM (inactive).

`O=C(N/N=C/c1cccc(Br)c1)c1ccc(Br)cc1`: the IC50 was 2.54 µM.

In the case of `Cc1ccc(C(=O)COc2ccccc2C(=O)Nc2ccccc2)cc1`, the IC50 is > 200 µM (inactive).

Regarding `CCC(C)[C@H](NC(=O)N1CCn2c1nc1ccccc12)C(=O)NCCc1ccc(OC)c(OC)c1` (some centres undefined), the IC50 was > 200 µM (inactive).

On to `Nc1ccc(O)c2c1C(=O)c1ccccc1C2=O`, for which the IC50 was < 1.56 µM.

`CCN(CC)CCOC(=O)c1ccc(N/C=C(/C#N)c2nc(-c3cc4ccccc4oc3=O)cs2)cc1`: the IC50 was > 200 µM (inactive).

Take `NS(=O)(=O)c1ccc(NC(=O)c2cccc(N3C(=O)c4ccccc4C3=O)c2)cc1`: the 50% inhibitory concentration (IC50) was 10.6 µM.

For the molecule `CCCCNc1c2c3c(cccc3n(C)c1=O)C(=O)c1ccccc1-2`, the IC50 was > 200 µM (inactive).

For `COCCOC(=O)c1sc(=S)n(CCOC)c1N`, the IC50 was 10.6 µM.

For `O=S(=O)(Nc1cc2nc3ccccc3nc2n1Cc1ccccc1)c1ccc(Cl)cc1`, the IC50 was 6.05 µM.

Turning to `Nc1ccc(S(=O)(=O)Nc2ccc(S(N)(=O)=O)cc2)cc1`, the IC50 was > 200 µM (inactive).

`Cc1cc(C)nc(N=Nc2c(O)n(Cc3ccc(Cl)cc3)c3ccccc23)n1`: the IC50 was > 200 µM (inactive).

Take `CS(=O)(=O)N1CCN(c2ccc([N+](=O)[O-])c(SCc3ccco3)c2)CC1`: the IC50 is > 200 µM (inactive).

On to `CC1CCN(S(=O)(=O)c2nnc(NC(=O)c3cccc(Cl)c3)s2)CC1`, for which the IC50 is > 200 µM (inactive).

On to `O=C(O)CCN1C(=O)/C(=C/c2cn(-c3ccccc3)nc2-c2cccs2)SC1=S`, for which the IC50 result was “inactive”.

For the molecule `O=c1ccc2c(-c3ccccc3)c3ccc(O)cc3oc-2c1`, the IC50 was > 200 µM (inactive).

Regarding `Cc1ccccc1NC(=O)CN1C(=O)N/C(=C\c2ccccc2OCc2ccc(C(=O)O)cc2)C1=O`, the 50% inhibitory concentration (IC50) was 5.04 µM.

As to `COC(=O)c1cc(NC(=O)c2ccccc2)c(=O)oc1/C=C/Nc1ccc(Oc2ccccc2)cc1`, the IC50 was > 200 µM (inactive).

With `CC1CCN(C(=O)C2CCC(C)(C(=O)O)C2(C)C)CC1` (centres undefined), the IC50 was > 200 µM (inactive).

`C=CCc1cccc2cc(C(=O)Nc3ccc(CC(=O)O)cc3)c(=O)oc12`: the IC50 is 9.1 µM.

With `O=C(Nc1ccc(S(=O)(=O)N2CCOCC2)cc1)c1ccc(=O)[nH]c1`, the IC50 was 1.89 µM.

`Cc1cc(C)n(-c2ccc(Cl)c(C(=O)Nc3cc(C(F)(F)F)ccc3Cl)n2)n1`: the IC50 is > 200 µM (inactive).

Turning to `CC(C)(C)c1cc(-c2csc(Nc3ccccc3)[n+]2Cc2ccc(C(=O)O)cc2)cc(C(C)(C)C)c1O`, the half-inhibitory concentration (IC50) was 6.69 µM.

Regarding `Oc1c(Br)cc(Br)cc1CNc1ccc(F)cc1`, the IC50 entry was “inactive”.

Regarding `COc1cc(/C=C2/SC(=S)N(Cc3ccccc3)C2=O)cc(Cl)c1O`, the IC50 is > 200 µM (inactive).

Take `Cc1ccc(CNc2ccc(O)cc2)cc1`: the IC50 was 4.51 µM.

For the molecule `Cc1cc2cc(CNC(=O)c3ccc(S(=O)(=O)N4CCCCC4)cc3)ccc2n1C`, the IC50 is 6.45 µM.

As for `C=C(C)Cn1c(N2CCN(CC)CC2)nc2c1c(=O)[nH]c(=O)n2C`, the IC50 is > 200 µM (inactive).

With `O=C(CCN1CCN(Cc2ccccc2)CC1)Nc1cccc(Cl)c1`, the IC50 is > 200 µM (inactive).

For `CC(=O)Nc1ccc(N=Cc2c(O)c(C(=O)Nc3ccccc3)cc3ccccc23)cc1`, the IC50 is > 200 µM (inactive).

In the case of `Nc1c(C(=O)NCc2ccco2)c2nc3ccccc3nc2n1CCc1ccccc1`, the IC50 is 1.77 µM.

As for `CCCCN(Cc1cc2cc(OC)ccc2[nH]c1=O)S(=O)(=O)c1ccc(C)cc1`, the IC50 is 17.2 µM.

On to `O=c1[nH]c2ccc(S(=O)(=O)N3CCCCC3)cc2s1`, for which the IC50 was > 200 µM (inactive).

Turning to `CN1/C(=C\C=C\C2=[N+](C)c3ccc4ccccc4c3C2(C)C)C(C)(C)c2ccccc21`, the IC50 was > 200 µM (inactive).

`CCc1nnc(NS(=O)(=O)c2ccc(NC(=S)NC(=O)/C=C/c3ccc(C(C)C)cc3)cc2)s1`: the IC50 is 8.87 µM.

On to `COc1ccc(CNC(=S)Nc2cc(OC)ccc2OC)cc1`, for which the IC50 was > 200 µM (inactive).

Consider `O=C(Nc1ccc(Oc2ccsc2C(=O)O)cc1)c1ccccc1F`, for which the IC50 result was “inactive”.

Take `COC/C=C/C1=CC2=CC(=O)C(C)(OC(=O)c3ccco3)C(=O)C2=CO1` (centres undefined): the IC50 is 5.94 µM.

As for `CCCCn1c(NS(=O)(=O)c2ccc(C)cc2)c(S(=O)(=O)c2ccccc2)c2nc3ccccc3nc21`, the IC50 was 3.41 µM.

For `Cc1c(Cc2ccccc2)c(=O)oc2c(C)c(OCC(=O)N[C@@H](Cc3ccccc3)C(=O)O)ccc12`, the IC50 was 4.38 µM.

Take `N#C/C(=C\c1c(F)cccc1Cl)C(=O)NC1CC1`: the IC50 is > 200 µM (inactive).

As for `COc1cccc(CCC(=O)N(C)C2CCCN(Cc3ccccc3F)C2)c1` (centres undefined), the IC50 was > 200 µM (inactive).

Consider `COc1ccc(-c2cnnn2-c2ccc(N)cc2)cc1OC`, for which the IC50 is > 200 µM (inactive).

On to `O=C(CCn1ccc2ccccc21)NC1CCCc2ccccc21` (centres undefined), for which the IC50 was > 200 µM (inactive).

Take `O=S(=O)(Nc1c(S(=O)(=O)c2ccccc2)c2nc3ccccc3nc2n1C1CCCCC1)c1ccccc1`: the IC50 was 2.09 µM.

For `CC12CCC(C(=O)NCc3ccc(Cl)cc3)(OC1=O)C2(C)C` (centres undefined), the IC50 was > 200 µM (inactive).

`CCn1c(O)c(C=Nc2ccc(N3CCOCC3)cc2)c(=O)n(CC)c1=S`: the IC50 is > 200 µM (inactive).

With `COC(=O)c1ccc2c(c1)C(C)(C)C(/C=C/c1ccccc1O)=[N+]2C`, the IC50 was > 200 µM (inactive).

As for `CCOC(=O)/C(C#N)=c1/s/c(=C2\C=Cc3ccccc3N2CC)c(=O)n1CC`, the IC50 is > 200 µM (inactive).

Consider `Oc1ccc(N=Cc2ccc(OCc3ccccc3)cc2)cc1`, for which the IC50 was 3.74 µM.

`CN(C)CCOC(=O)CCc1ccccc1`: the IC50 is > 200 µM (inactive).

Turning to `CSc1ccccc1C(=O)NC(C)c1ccc(-n2ccnc2)cc1` (centres undefined), the IC50 result is “inactive”.

Consider `Cc1ccc(S(=O)(=O)NN=C2C3CC4CC(C3)CC2C4)cc1[N+](=O)[O-]`, for which the IC50 is > 200 µM (inactive).

In the case of `COC(=O)c1cccc(Cn2c(Cl)c(/C=N/NC(=O)c3ccccc3Cl)sc2=O)c1`, the IC50 is 19 µM.

With `NS(=O)(=O)c1ccc(NS(=O)(=O)c2ccc(NC(=O)c3ccc(-c4ccccc4)cc3)cc2)cc1`, the IC50 was < 1.56 µM.

As to `Fc1ccc(/C=N/NC(=S)Nc2cccnc2)cc1F`, the IC50 result is “inactive”.

`CN(Cc1c(C(=O)N/N=C/c2ccc(F)cc2)nnn1-c1nonc1N)C1CCCCC1`: the IC50 is > 200 µM (inactive).

`C=CCn1c(NS(=O)(=O)c2ccccc2)c(S(=O)(=O)c2ccc(C)cc2)c2nc3ccccc3nc21`: the IC50 is < 1.56 µM.

For `CC(C)(C)c1ccc(C(CC(=O)O)NC(=O)Cc2ccc(F)cc2)cc1` (centres undefined), the IC50 is 4.55 µM.

Take `O=C(/C=C/c1ccco1)OCc1nnc(-c2ccccc2)o1`: the IC50 is 4.37 µM.

Regarding `O=C(Nc1nc(-c2cc3ccccc3oc2=O)cs1)c1ccco1`, the IC50 is 2.39 µM.

Consider `O=C(Nc1ccc(Cl)cc1)OCc1cn(-c2ccccc2)nn1`, for which the IC50 is > 200 µM (inactive).
